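Protocol summary: plate cells (96-well), add compound at 5 concentrations, incubate 48 h, interpolate endpoints linearly. Definition used: TGI = concentration required for complete inhibition of growth.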
How the values were obtained:
Assay in all cases: inhibition of tumour cell growth, NCI panel, 48 h
NCI-H460 lung = tested on: NCI-H460 lung
SW-620 colon = tested on: SW-620 colon
IGROV1 ovarian = tested on: IGROV1 ovarian
PC-3 prostate = tested on: PC-3 prostate
SK-OV-3 ovarian = tested on: SK-OV-3 ovarian
U251 CNS = tested on: U251 CNS
SF-268 CNS = tested on: SF-268 CNS
MDA-N = tested on: MDA-N
A549 NSCLC = tested on: A549 NSCLC
786-0 renal = tested on: 786-0 renal
MDA-MB-231 breast = tested on: MDA-MB-231 breast
SK-MEL-2 melanoma = tested on: SK-MEL-2 melanoma
KM12 colon = tested on: KM12 colon
SK-MEL-28 melanoma = tested on: SK-MEL-28 melanoma
A498 renal = tested on: A498 renal
CCRF-CEM leukemia = tested on: CCRF-CEM leukemia
SF-295 CNS = tested on: SF-295 CNS
HL-60(TB) leukemia = tested on: HL-60(TB) leukemia
OVCAR-4 ovarian = tested on: OVCAR-4 ovarian
HOP-92 NSCLC = tested on: HOP-92 NSCLC

Compound | TGI (NCI-H460 lung) | TGI (SW-620 colon) | TGI (IGROV1 ovarian) | TGI (PC-3 prostate) | TGI (SK-OV-3 ovarian) | TGI (U251 CNS) | TGI (SF-268 CNS) | TGI (MDA-N) | TGI (A549 NSCLC) | TGI (786-0 renal) | TGI (MDA-MB-231 breast) | TGI (SK-MEL-2 melanoma) | TGI (KM12 colon) | TGI (SK-MEL-28 melanoma) | TGI (A498 renal) | TGI (CCRF-CEM leukemia) | TGI (SF-295 CNS) | TGI (HL-60(TB) leukemia) | TGI (OVCAR-4 ovarian) | TGI (HOP-92 NSCLC)
O=C(/C=C/c1ccc(Cl)cc1)c1cccs1 | 35.4 µM | 30.4 µM | 75.3 µM | 32.8 µM | 77 µM | 29.5 µM | 75.9 µM | 31.6 µM | 83.5 µM | 30 µM | 39.9 µM | > 100 µM | 31.1 µM | 54.2 µM | 56 µM | 98.1 µM | 38.5 µM | 29.8 µM |  | 
O=C(CCCN1CCC2(CC1)CC(=O)N(N1CCCCCC1)C2=O)c1ccc(F)cc1 |  | > 100 µM | > 100 µM | > 100 µM | > 100 µM | > 100 µM | > 100 µM | > 100 µM | > 100 µM | 38.1 µM | > 100 µM | > 100 µM |  | > 100 µM | > 100 µM | > 100 µM | 63.2 µM | > 100 µM | > 100 µM | 
CCOc1ncn(-c2ccc(NC(=S)NC34CC5CC(CC(C5)C3)C4)cc2)n1 | > 100 µM | > 100 µM | > 100 µM | > 100 µM | > 100 µM |  | > 100 µM | > 100 µM | > 100 µM | > 100 µM | > 100 µM |  | > 100 µM | > 100 µM |  | > 100 µM | > 100 µM | > 100 µM | > 100 µM | 60.6 µM
CC12c3c4cc(Br)cc3Oc3cc(Br)cc(c31)Oc1cc(Br)cc(c12)O4 | > 100 µM | > 100 µM | 86.6 µM | 55.3 µM | > 100 µM | > 100 µM | 28.2 µM | > 100 µM | > 100 µM | 44.4 µM | 59.3 µM | 67.8 µM | > 100 µM | > 100 µM |  |  | > 100 µM |  | > 100 µM | 
CC(C)CCc1n[nH]c(=O)n1/N=C\c1ccccc1 | > 100 µM | > 100 µM | > 100 µM |  | > 100 µM | > 100 µM | > 100 µM | > 100 µM | > 100 µM | > 100 µM | > 100 µM | > 100 µM | > 100 µM | > 100 µM | > 100 µM | > 100 µM | > 100 µM |  | > 100 µM | > 100 µM
CC(=O)O[C@H]1CCn2c3c(c(C)c21)C(=O)C(N1CC1)=C(C)C3=O | > 10 µM | > 10 µM | > 10 µM | > 10 µM | > 10 µM | > 10 µM | > 10 µM | > 10 µM | 7.83 µM | > 10 µM | > 10 µM | > 10 µM | > 10 µM |  |  | > 10 µM | > 10 µM | > 10 µM | > 10 µM | 

Reference: PubChem BioAssay (NCI)
